Assay in all cases: Competitive isoTOP-ABPP in situ (fragment-treated cells)
Holding throughout (format): cell-based

For assay [1], the target named is T1, cysteines in MDA-MB-231 and Ramos cells (Homo sapiens, UniProt P78417).
T1 sequence (P78417 1-241): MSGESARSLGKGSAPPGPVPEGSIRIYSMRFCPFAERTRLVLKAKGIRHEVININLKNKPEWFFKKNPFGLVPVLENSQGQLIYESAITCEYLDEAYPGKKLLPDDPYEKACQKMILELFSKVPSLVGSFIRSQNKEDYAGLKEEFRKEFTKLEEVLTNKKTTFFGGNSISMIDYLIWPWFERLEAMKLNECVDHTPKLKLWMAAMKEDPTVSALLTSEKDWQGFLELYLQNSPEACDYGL
The note with it: for isoTOP-ABPP ratio P78417_C32: 200 μM, insitu.

The target in assay [2] is T2, cysteines in MDA-MB-231 and Ramos cells (Homo sapiens, UniProt Q9Y277).
T2 sequence (Q9Y277 1-283): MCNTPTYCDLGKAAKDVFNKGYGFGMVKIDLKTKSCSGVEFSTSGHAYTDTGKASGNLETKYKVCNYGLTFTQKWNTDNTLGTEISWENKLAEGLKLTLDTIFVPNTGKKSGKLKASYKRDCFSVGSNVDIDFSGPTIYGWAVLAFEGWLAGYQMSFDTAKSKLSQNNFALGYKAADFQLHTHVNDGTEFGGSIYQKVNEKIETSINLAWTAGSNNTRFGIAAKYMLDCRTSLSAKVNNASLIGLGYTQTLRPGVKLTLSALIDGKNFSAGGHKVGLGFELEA
The note with it: for isoTOP-ABPP ratio Q9Y277_C65: 200 μM, insitu.

For assay [3], the target named is T3, cysteines in MDA-MB-231 and Ramos cells (Homo sapiens, UniProt Q9Y3A3).
T3 sequence (Q9Y3A3 1-225): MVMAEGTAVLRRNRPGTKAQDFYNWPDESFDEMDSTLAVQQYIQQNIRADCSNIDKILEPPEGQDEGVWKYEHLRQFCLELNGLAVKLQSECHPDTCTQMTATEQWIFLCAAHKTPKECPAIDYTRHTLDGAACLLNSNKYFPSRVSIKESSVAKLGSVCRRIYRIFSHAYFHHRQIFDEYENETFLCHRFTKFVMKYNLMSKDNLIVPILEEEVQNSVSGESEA
The following applies: for isoTOP-ABPP ratio Q9Y3A3_C134: 200 μM, insitu.

In assay [4] the target is cysteines in MDA-MB-231 and Ramos cells (Homo sapiens, UniProt Q9ULV4). The following applies: for isoTOP-ABPP ratio Q9ULV4_C420: 200 μM, insitu.
Assay [5] deals with T4, cysteines in MDA-MB-231 and Ramos cells (Homo sapiens, UniProt Q9NRG0).
T4 sequence (Q9NRG0 1-131): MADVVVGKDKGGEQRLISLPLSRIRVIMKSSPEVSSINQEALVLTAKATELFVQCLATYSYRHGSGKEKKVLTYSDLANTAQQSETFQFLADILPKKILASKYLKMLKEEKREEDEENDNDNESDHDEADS
The note with it: for isoTOP-ABPP ratio Q9NRG0_C55: 200 μM, insitu, 231.

The target of assay [6] is T5, cysteines in MDA-MB-231 and Ramos cells (Homo sapiens, UniProt P25205).
T5 sequence (P25205 1-808): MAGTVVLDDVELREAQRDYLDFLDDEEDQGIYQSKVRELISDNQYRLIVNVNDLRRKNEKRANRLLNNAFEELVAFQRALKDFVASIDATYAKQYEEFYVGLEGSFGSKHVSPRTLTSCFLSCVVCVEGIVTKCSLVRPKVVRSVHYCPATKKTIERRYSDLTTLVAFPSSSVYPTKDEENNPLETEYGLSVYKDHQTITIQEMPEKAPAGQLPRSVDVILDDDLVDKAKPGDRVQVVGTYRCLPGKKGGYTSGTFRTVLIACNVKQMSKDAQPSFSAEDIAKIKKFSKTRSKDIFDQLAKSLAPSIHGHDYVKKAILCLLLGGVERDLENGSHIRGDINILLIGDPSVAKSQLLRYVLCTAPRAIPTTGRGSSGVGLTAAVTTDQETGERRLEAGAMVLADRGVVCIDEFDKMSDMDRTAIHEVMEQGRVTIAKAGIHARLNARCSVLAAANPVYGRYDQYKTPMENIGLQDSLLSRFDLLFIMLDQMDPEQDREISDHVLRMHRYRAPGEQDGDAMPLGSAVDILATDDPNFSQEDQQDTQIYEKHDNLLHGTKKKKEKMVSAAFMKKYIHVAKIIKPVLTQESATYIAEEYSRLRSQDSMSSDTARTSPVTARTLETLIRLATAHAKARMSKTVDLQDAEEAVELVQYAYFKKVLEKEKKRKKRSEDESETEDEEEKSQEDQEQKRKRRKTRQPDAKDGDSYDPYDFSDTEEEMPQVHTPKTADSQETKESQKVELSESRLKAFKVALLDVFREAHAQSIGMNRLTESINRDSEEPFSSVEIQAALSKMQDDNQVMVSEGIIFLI
The note with it: for isoTOP-ABPP ratio P25205_C119: 200 μM, insitu.

The target in assay [7] is T6, cysteines in MDA-MB-231 and Ramos cells (Homo sapiens, UniProt A6NDU8).
T6 sequence (A6NDU8 1-294): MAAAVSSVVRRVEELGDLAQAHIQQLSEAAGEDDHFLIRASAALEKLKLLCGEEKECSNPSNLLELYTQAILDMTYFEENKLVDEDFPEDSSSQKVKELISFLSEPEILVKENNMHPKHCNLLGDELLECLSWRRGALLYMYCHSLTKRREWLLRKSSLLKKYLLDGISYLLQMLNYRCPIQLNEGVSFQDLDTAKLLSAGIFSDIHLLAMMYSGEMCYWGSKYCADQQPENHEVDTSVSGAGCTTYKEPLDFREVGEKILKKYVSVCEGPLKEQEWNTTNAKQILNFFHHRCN
The note with it: for isoTOP-ABPP ratio A6NDU8_C179: 200 μM, insitu, 231.

Assay [8] concerns the target T7, cysteines in MDA-MB-231 and Ramos cells (Homo sapiens, UniProt P22307).
T7 sequence (P22307 1-547): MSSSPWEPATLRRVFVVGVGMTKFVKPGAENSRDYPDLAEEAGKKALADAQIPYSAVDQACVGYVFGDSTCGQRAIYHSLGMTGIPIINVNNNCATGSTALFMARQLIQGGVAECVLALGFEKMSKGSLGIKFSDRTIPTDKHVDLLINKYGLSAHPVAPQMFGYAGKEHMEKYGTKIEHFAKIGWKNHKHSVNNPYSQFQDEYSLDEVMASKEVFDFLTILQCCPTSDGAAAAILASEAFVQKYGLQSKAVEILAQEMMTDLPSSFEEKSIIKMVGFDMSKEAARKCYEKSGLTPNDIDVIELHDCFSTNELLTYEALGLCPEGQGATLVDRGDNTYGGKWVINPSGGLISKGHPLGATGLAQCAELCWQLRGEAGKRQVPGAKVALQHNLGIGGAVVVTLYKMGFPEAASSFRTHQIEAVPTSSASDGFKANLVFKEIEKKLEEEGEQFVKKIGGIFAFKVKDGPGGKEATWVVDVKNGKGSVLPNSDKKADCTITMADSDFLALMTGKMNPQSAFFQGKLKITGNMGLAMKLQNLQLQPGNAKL

cysteines in MDA-MB-231 and Ramos cells (Homo sapiens, UniProt Q9ULV4), sequence (Q9ULV4 whole entry): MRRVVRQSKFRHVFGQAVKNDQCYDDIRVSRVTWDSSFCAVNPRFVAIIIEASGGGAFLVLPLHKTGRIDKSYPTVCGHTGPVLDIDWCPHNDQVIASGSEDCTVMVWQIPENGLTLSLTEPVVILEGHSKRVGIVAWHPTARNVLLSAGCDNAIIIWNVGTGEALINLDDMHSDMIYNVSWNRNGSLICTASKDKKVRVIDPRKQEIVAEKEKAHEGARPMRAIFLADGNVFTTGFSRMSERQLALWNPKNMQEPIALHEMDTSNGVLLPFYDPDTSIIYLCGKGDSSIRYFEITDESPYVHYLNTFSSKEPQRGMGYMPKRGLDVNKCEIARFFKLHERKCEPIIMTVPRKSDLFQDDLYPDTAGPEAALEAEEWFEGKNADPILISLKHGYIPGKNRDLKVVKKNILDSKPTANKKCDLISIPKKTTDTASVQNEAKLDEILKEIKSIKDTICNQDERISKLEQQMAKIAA

Consider `COc1ccc(C2CC(c3cccs3)=NN2C(=O)CCl)cc1` (stereo not shown) [compound 4], for which the “isoTOP-ABPP reactivity P78417_C32 GSTO1” value in assay [1] (100 μM in situ 231) worked out at 19.9. Further, the “isoTOP-ABPP reactivity Q9Y277_C65 VDAC3” value in assay [2] (100 μM in situ 231) was 4.7. Further, the “isoTOP-ABPP reactivity Q9Y3A3_C134 MOB4” value in assay [3] (100 μM in situ 231) is given as 1.2. In assay [4] (100 μM in situ 231), the “isoTOP-ABPP reactivity Q9ULV4_C420 CORO1C” value was 1.3. In assay [5] (100 μM in situ 231), the “isoTOP-ABPP reactivity Q9NRG0_C55 CHRAC1” value is 20.0. Besides, the “isoTOP-ABPP reactivity P25205_C119 MCM3” value in assay [6] (100 μM in situ 231) is listed as 4.3. The “isoTOP-ABPP reactivity A6NDU8_C179 C5orf51” value in assay [7] (100 μM in situ 231) was 3.0. In assay [8] (100 μM in situ 231), the “isoTOP-ABPP reactivity P22307_C71 SCP2” value is 2.7, the “isoTOP-ABPP reactivity P22307_C94 SCP2” value is 20.0 and the “isoTOP-ABPP reactivity P22307_C307 SCP2” value stood at 20.0.
With `O=C(CCl)N1CCN(S(=O)(=O)c2ccccc2F)CC1` [compound 10], the “isoTOP-ABPP ratio P78417_C32” value in assay [1] (231) and in assay [1] (ramos) was 20.0 each time. Also, the figures for the “isoTOP-ABPP ratio Q9Y277_C65” value in assay [2] (231) and in assay [2] (ramos) were 3.3 and 2.5, respectively. For the same molecule, in assay [3] (231), the “isoTOP-ABPP ratio Q9Y3A3_C134” value is recorded as 1.9. Besides, the “isoTOP-ABPP ratio Q9ULV4_C420” value in assay [4] (231) was 3.4. In addition, the “isoTOP-ABPP ratio Q9NRG0_C55” value in assay [5] was found to be 2.7. The “isoTOP-ABPP ratio P25205_C119” value in assay [6] (231) was determined as 2.3. Besides, the “isoTOP-ABPP ratio A6NDU8_C179” value in assay [7] is on record as 1.3. For the same molecule, the “isoTOP-ABPP ratio P22307_C71” value in assay [8] (200 μM, insitu, 231) was determined as 8.3.
Regarding `O=C(CCl)NCCc1c[nH]c2ccccc12` [compound 13], the “isoTOP-ABPP ratio P78417_C32” value in assay [1] (231) and in assay [1] (ramos) was 20.0 each time. Besides, the “isoTOP-ABPP ratio Q9Y277_C65” value in assay [2] (231) was 1.0. Further, in assay [3] (ramos), the “isoTOP-ABPP ratio Q9Y3A3_C134” value is recorded as 1.9. Further, the “isoTOP-ABPP ratio Q9ULV4_C420” value in assay [4] (231) and in assay [4] (ramos) was 1.1 each time. Besides, the “isoTOP-ABPP ratio Q9NRG0_C55” value in assay [5] came out at 1.2. Further, the “isoTOP-ABPP ratio P25205_C119” value was determined as 1.1 in assay [6] (231) and 1.3 in assay [6] (ramos). Also, the “isoTOP-ABPP ratio A6NDU8_C179” value in assay [7] is listed as 0.8. Besides, the “isoTOP-ABPP ratio P22307_C71” value in assay [8] (200 μM, insitu, 231) was determined as 4.9.
For `Cc1ccc(C=C(C#N)C(=O)NCCN2CCOCC2)cc1` [compound 41], the “isoTOP-ABPP ratio P78417_C32” value in assay [1] (231) was 0.3. Moreover, the “isoTOP-ABPP ratio Q9Y277_C65” value in assay [2] (231) is 1.4. Besides, in assay [3] (231), the “isoTOP-ABPP ratio Q9Y3A3_C134” value amounted to 0.9. Besides, in assay [4] (231), the “isoTOP-ABPP ratio Q9ULV4_C420” value is on record as 0.8. The “isoTOP-ABPP ratio Q9NRG0_C55” value in assay [5] was 0.9. For the same molecule, the “isoTOP-ABPP ratio P25205_C119” value in assay [6] (231) stood at 0.9. The “isoTOP-ABPP ratio A6NDU8_C179” value in assay [7] was 0.6. In assay [8] (200 μM, insitu, 231), the “isoTOP-ABPP ratio P22307_C71” value was found to be 1.2 and the “isoTOP-ABPP ratio P22307_C307” value turned out to be 1.1.

Source of the values: patent US10670605B2, “Cysteine reactive probes and uses thereof” (The Scripps Research Institute, priority 2015, dated 2020).
